Where two headings read alike, the source gives them in different places.
How the values were obtained:
mice [1] = experiment: Passive avoidance test (block of cycloheximide-induced amnesia); type: in vivo; settings: Mus musculus, 2 h, intraperitoneal administration two hours prior to training, amnestic agent 30 mg/kg cycloheximide i.p., read-out: minimum effective dose (MED)
Method: Passive avoidance is an acute memory paradigm in which mice are allowed to enter a dark compartment from a lighted compartment, but are given a footshock (2 mA for 5 seconds) when they enter the dark compartment. […] If an amnestic agent (30 mg/kg cycloheximide i.p. in saline) immediately after the training session is given to the animals, they will make the transition into the dark compartment (i.e., memory of the shock is lost). Compounds with suspected nootropic or anti-amnestic effects are given by i.p. administration two hours prior to the training trial in attempt to block the effects of cycloheximide. […] This behavioral response is defined as passive avoidance. A no effect response in this test is defined as a failure to stay in the lighted compartment for 120 seconds.

mice [2] = experiment: as above; type: in vivo; settings: Mus musculus, oral administration, amnestic agent 30 mg/kg cycloheximide i.p., read-out: minimum effective dose (MED)

Row | Compound | minimal effective dose (mice [1]) [mg/kg] | minimal effective dose (mice [2]) [µg/kg]
1 | CCOC(=O)c1ccc(NC(=O)CCn2cnc3c(=O)n(Cc4ccccc4)cnc32)cc1 [Example 1, 4-[3-(1-benzyl-6-oxo-1,6-dihydropurin-9-yl)propionylamino]benzoic acid ethyl ester] | 0.0003 | 10
2 | CCCCn1cnc2c(ncn2CCC(=O)Nc2ccc(C(=O)OCC)cc2)c1=O [Example 2, 4-[3-(1-butyl-6-oxo-1,6-dihydropurin-9-yl)propionylamino]benzoic acid ethyl ester] | 0.001 | 
3 | CCOC(=O)c1ccc(NC(=O)CCn2cnc3c(=O)n(C)cnc32)cc1 [Example 3, 4-[3-(1-methyl-6-oxo-1,6-dihydropurin-9-yl)propionylamino]benzoic acid ethyl ester] | 0.1 | 
4 | CCOC(=O)c1ccc(NC(=O)CCn2cnc3c(=O)n(CCN(C)C)cnc32)cc1 [Example 4, 4-[3-(1-(2-dimethylaminoethyl)-6-oxo-1,6-dihydropurin-9-yl)propionylamino]benzoic acid ethyl ester] | 1 | 
5 | CCOC(=O)c1ccc(NC(=O)CCn2cnc3c(=O)[nH]c(=O)[nH]c32)cc1 [Example 5, 4-[3-(2,6-dioxo-1,2,3,6-tetrahydropurin-9-yl)propionylamino]benzoic acid ethyl ester] | 0.001 | 
6 | CCOC(=O)c1ccc(NC(=O)CCn2cnc3c(N(C)C)ncnc32)cc1 [Example 7, 4-[3-(6-dimethylaminopurin-9-yl)propionylamino]benzoic acid ethyl ester] | 0.01 | 
7 | CCOC(=O)c1ccc(NC(=O)CCn2cnc3c(Cl)nc(N)nc32)cc1 [Example 8, 4-[3-(2-amino-6-chloropurin-9-yl)propionylamino]benzoic acid ethyl ester] | 0.01 | 
8 | CCOC(=O)c1ccc(NC(=O)C(C)n2cnc3c(=O)[nH]c(=S)[nH]c32)cc1 (stereo not drawn) [Example 9, 4-[2-(6-oxo-2-thioxo-1,2,3,6-tetrahydropurin-9-yl)propionylamino]benzoic acid ethyl ester] | 0.0001 | 1
9 | CCCCc1nc2c(ncn2C(C)C(=O)Nc2ccc(C(=O)OCC)cc2)c(=O)[nH]1 (stereo not drawn) [Example 10, 4-[2-(2-butyl-6-oxo-1,6-dihydropurin-9-yl)propionylamino]benzoic acid ethyl ester] | 0.1 | 
10 | CCOC(=O)c1ccc(NC(=O)C(C)n2cnc3c(=O)[nH]c(-c4ccccc4)nc32)cc1 (stereo not drawn) [Example 11, 4-[2-(6-oxo-2-phenyl-1,6-dihydropurin-9-yl)propionylamino]benzoic acid ethyl ester] | 10 | 
11 | COC(=O)c1ccc(N(C)C(=O)CCn2cnc3c(Cl)ncnc32)cc1 [Example 12, 4-{[3-(6-chloropurin-9-yl)propionyl]methylamino}benzoic acid methyl ester] | 0.0001 | 
12 | O=C(CCn1cnc2c(=O)n(Cc3ccccc3)cnc21)NCCCN1CCCC1=O [Example 13, 3-(1-benzyl-6-oxo-1,6-dihydropurin-9-yl)-N-[3-(2-oxopyrrolidin-1-yl)propyl]propionamide] | 1 | 
13 | O=C(CCn1cnc2c(=O)n(Cc3ccccc3)cnc21)NCCNC(=O)CN1CCCC1=O [Example 14, 3-(1-benzyl-6-oxo-1,6-dihydropurin-9-yl)-N-{2-[2-(2-oxopyrrolidin-1-yl)acetylamino]ethyl}propionamide] | 1 | 

— patent US20020156277A1, “Synthesis and methods of use of purine analogues and derivatives” (priority 2001, published 2002)
